Molecular target: Recombinant human KRAS protein containing the G12C amino acid substitution (Homo sapiens (Human), UniProt P01116, G12C)
Assay: HTRF nucleotide exchange assay, KRAS G12C
Format: biochemical
Conditions: 180 minute incubation with compound at room temperature; at least two independent replicates; read-out: KRAS G12C HTRF NEA IC50
Protocol: The capacity of compounds to bind KRAS G12C and KRAS wildtype was quantified using a HTRF nucleotide exchange assay. Recombinant human KRAS protein (5 nM; aa1-188 KRAS WT or KRAS containing the G12C amino acid substitution, an N-terminal 6×His-tag and leader sequence), and 2 nM Europium-labeled anti-6×His antibody were mixed in assay buffer (10 mM HEPES pH7.3, 75 mM NaCl, 5 mM MgCl2, 0.05% BSA, 0.0025% NP-40 and 100 mM KF) with various concentrations of compound in a 384-well plate and a volume of 5 μL. After a 180 minute incubation at room temperature, 5 μl of 200 nM EDA-GTP-DY647P1 diluted in assay buffer was added to the plate. Following 30-minute incubation at room temperature, time-resolved fluorescence was measured on a PerkinElmer Envision plate reader. DMSO (0.3%) and unlabeled GDP (1 μM) or equivalent tool compound were used to generate the Max and Min assay signals, respectively. Data was analysed using a four-parameter logistic model to calculate IC50 values, with at least two independent replicates were performed for each compound.

Recombinant human KRAS protein containing the G12C amino acid substitution, sequence (P01116 other isoform, or with tags, fused parts or gaps G12C): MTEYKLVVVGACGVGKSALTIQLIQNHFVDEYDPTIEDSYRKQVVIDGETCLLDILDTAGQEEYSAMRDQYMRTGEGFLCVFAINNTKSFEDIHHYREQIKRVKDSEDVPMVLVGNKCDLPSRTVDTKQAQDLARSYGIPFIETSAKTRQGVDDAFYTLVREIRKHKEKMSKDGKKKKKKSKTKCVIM

Row | SMILES | IC50 [nM]
1 | C=CC(=O)N1CC2(CC(c3nc(-c4ccc(C(=O)NCCN(C)C)cc4)c(-c4c(C)ccc5[nH]ncc45)n3C)C2)C1 [Example 22, N-[2-(dimethylamino)ethyl]-4-[1-methyl-5-(5-methyl-1H-indazol-4-yl)-2-(2-prop-2-enoyl-2-azaspiro[3.3]heptan-6-yl)imidazol-4-yl]benzamide] | 1000 to 10000
2 | C=CC(=O)N1CC2(CC(c3nc(-c4ccc5c(cnn5C)c4)c(-c4cc(O)cc5cccc(Cl)c45)n3C)C2)C1 [Example 35, 1-[6-[5-(8-chloro-3-hydroxy-1-naphthyl)-1-methyl-4-(1-methylindazol-5-yl)imidazol-2-yl]-2-azaspiro[3.3]heptan-2-yl]prop-2-en-1-one] | ≤ 1000
3 | C=CC(=O)N1CC2(CC(c3nc(-c4ccc(C(=O)NCC(F)(F)F)c(OC)c4)c(-c4c(C)ccc5[nH]ncc45)n3C)C2)C1 [Example 23, 2-methoxy-4-[1-methyl-5-(5-methyl-1H-indazol-4-yl)-2-(2-prop-2-enoyl-2-azaspiro[3.3]heptan-6-yl)95midazole-4-yl]-N-(2,2,2-trifluoroethyl)benzamide] | 1000 to 10000
4 | C=CC(=O)N1CC2(CC(c3nc(-c4ccc(N5CCOCC5)cc4)c(-c4c(C)ccc5[nH]ncc45)n3C)C2)C1 [Example 5, 1-[6-[1-methyl-5-(5-methyl-1H-indazol-4-yl)-4-(4-morpholinophenyl)imidazol-2-yl]-2-azaspiro[3.3]heptan-2-yl]prop-2-en-1-one] | ≤ 1000
5 | C=CC(=O)N1CC2(CC(c3nc(-c4ccc5c(cnn5C)c4)c(-c4cc(Cl)cc5[nH]ncc45)n3C)C2)C1 [Example 41, 1-[6-[5-(6-chloro-1H-indazol-4-yl)-1-methyl-4-(1-methylindazol-5-yl)imidazol-2-yl]-2-azaspiro[3.3]heptan-2-yl]prop-2-en-1-one] | ≤ 1000
6 | C=CC(=O)N1CC2(CC(c3nc(-c4ccc(C(=O)NCCN5CCOCC5)cc4)c(-c4cc(O)cc5ccccc45)n3C)C2)C1 [Example 37, 4-[5-(3-hydroxy-1-naphthyl)-1-methyl-2-(2-prop-2-enoyl-2-azaspiro[3.3]heptan-6-yl)imidazol-4-yl]-N-(2-morpholinoethyl)benzamide] | ≤ 1000
7 | C=CC(=O)N1CC2(CC(c3nc(-c4ccc(OCC(=O)N5CCOCC5)cc4)c(-c4c(C)ccc5[nH]ncc45)n3C)C2)C1 [Example 20, 1-[6-[1-methyl-5-(5-methyl-1H-indazol-4-yl)-4-[4-(2-morpholino-2-oxo-ethoxy)phenyl]imidazol-2-yl]-2-azaspiro[3.3]heptan-2-yl]prop-2-en-1-one] | 1000 to 10000
8 | C=CC(=O)N1CC2(CC(c3nc(-c4ccc5c(cnn5C)c4)c(-c4cc(O)ccc4C(F)(F)F)n3C)C2)C1 [Example 39, 1-[6-[5-[5-hydroxy-2-(trifluoromethyl)phenyl]-1-methyl-4-(1-methylindazol-5-yl)imidazol-2-yl]-2-azaspiro[3.3]heptan-2-yl]prop-2-en-1-one] | ≤ 1000

More lines, now with the values ahead:

Row | IC50 [nM] | SMILES
9 | 1000 to 10000 | C=CC(=O)N1CC2(CC(c3nc(-c4ccc(OC)cc4F)c(-c4c(C)ccc5[nH]ncc45)n3C)C2)C1 [Example 4, 1-[6-[4-(2-fluoro-4-methoxy-phenyl)-1-methyl-5-(5-methyl-1H-indazol-4-yl)imidazol-2-yl]-2-azaspiro[3.3]heptan-2-yl]prop-2-en-1-one]
10 | ≥ 10000 | C=CC(=O)N1CC2(CC(c3nc(-c4cn(C)nc4C)c(-c4c(C)ccc5[nH]ncc45)n3C)C2)C1 [Example 12, 1-[6-[4-(1,3-dimethylpyrazol-4-yl)-1-methyl-5-(5-methyl-1H-indazol-4-yl)imidazol-2-yl]-2-azaspiro[3.3]heptan-2-yl]prop-2-en-1-one]
11 | 1000 to 10000 | C=CC(=O)N1CC2(CC(c3nc(-c4ccccc4)c(-c4c(C)ccc5[nH]ncc45)n3C)C2)C1 [Example 2, 1-[6-[1-methyl-5-(5-methyl-1H-indazol-4-yl)-4-phenyl-imidazol-2-yl]-2-azaspiro[3.3]heptan-2-yl]prop-2-en-1-one]
12 | 1000 to 10000 | C=CC(=O)N1CC2(CC(c3nc(-c4ccc5c(c4)nc(C)n5C)c(-c4c(C)ccc5[nH]ncc45)n3C)C2)C1 [Example 9, 1-[6-[4-(1,2-dimethylbenzimidazol-5-yl)-1-methyl-5-(5-methyl-1H-indazol-4-yl)imidazol-2-yl]-2-azaspiro[3.3]heptan-2-yl]prop-2-en-1-one]
13 | 1000 to 10000 | C=CC(=O)N1CC2(CC(c3nc(-c4ccc(OCC(=O)N(C)C)cc4)c(-c4c(C)ccc5[nH]ncc45)n3C)C2)C1 [Example 19, N,N-dimethyl-2-[4-[1-methyl-5-(5-methyl-1H-indazol-4-yl)-2-(2-prop-2-enoyl-2-azaspiro[3.3]heptan-6-yl)imidazol-4-yl]phenoxy]acetamide]
14 | ≤ 1000 | C=CC(=O)N1CC2(CC(c3nc(-c4ccc5c(cnn5C)c4)c(-c4c(C)ccc5[nH]ncc45)n3C)C2)C1 [Example 1, 1-[6-[1-methyl-4-(1-methylindazol-5-yl)-5-(5-methyl-1H-indazol-4-yl)imidazol-2-yl]-2-azaspiro[3.3]heptan-2-yl]prop-2-en-1-one]
15 | ≤ 1000 | C=CC(=O)N1CC2(CC(c3nc(-c4ccc5nn(C)cc5c4)c(-c4c(C)ccc5[nH]ncc45)n3C)C2)C1 [Example 14, 1-[6-[1-methyl-4-(2-methylindazol-5-yl)-5-(5-methyl-1H-indazol-4-yl)imidazol-2-yl]-2-azaspiro[3.3]heptan-2-yl]prop-2-en-1-one]
16 | 1000 to 10000 | C=CC(=O)N1CC2(CC(c3nc(-c4ccc5c(cnn5C)c4C)c(-c4c(C)ccc5[nH]ncc45)n3C)C2)C1 [Example 11, 1-[6-[4-(1,4-dimethylindazol-5-yl)-1-methyl-5-(5-methyl-1H-indazol-4-yl)imidazol-2-yl]-2-azaspiro[3.3]heptan-2-yl]prop-2-en-1-one]
17 | ≥ 10000 | C=CC(=O)N1CC2(CC(c3nc(-c4c(C)ccc5[nH]ncc45)c(-c4ccc5c(cnn5C)c4)n3C)C2)C1 [Example 25, 1-[6-[1-methyl-5-(1-methylindazol-5-yl)-4-(5-methyl-1H-indazol-4-yl)imidazol-2-yl]-2-azaspiro[3.3]heptan-2-yl]prop-2-en-1-one]
